Assay results from publication PMC3930709, “Selective Activation of hTRPV1 by N-Geranyl Cyclopropylcarboxamide, an Amiloride-Insensitive Salt Taste Enhancer” (PLoS ONE, 2014).
pEC50: −log10 of the molar value.

Key:
[1] = target: T1, mASIC1a (Mus musculus, UniProt Q6NXK8); test: Whole-cell patch clamp recording, mASIC1a-expressing HEK293T cells; assay type: cell-based; settings: NGCC 1 mM; holding -70 mV; n = 5
T1 construct: expressed in transfected cells; host or cells: HEK293T (cDNA gift from John A. Wemmie, University of Iowa)
T1 sequence (Q6NXK8 1-526): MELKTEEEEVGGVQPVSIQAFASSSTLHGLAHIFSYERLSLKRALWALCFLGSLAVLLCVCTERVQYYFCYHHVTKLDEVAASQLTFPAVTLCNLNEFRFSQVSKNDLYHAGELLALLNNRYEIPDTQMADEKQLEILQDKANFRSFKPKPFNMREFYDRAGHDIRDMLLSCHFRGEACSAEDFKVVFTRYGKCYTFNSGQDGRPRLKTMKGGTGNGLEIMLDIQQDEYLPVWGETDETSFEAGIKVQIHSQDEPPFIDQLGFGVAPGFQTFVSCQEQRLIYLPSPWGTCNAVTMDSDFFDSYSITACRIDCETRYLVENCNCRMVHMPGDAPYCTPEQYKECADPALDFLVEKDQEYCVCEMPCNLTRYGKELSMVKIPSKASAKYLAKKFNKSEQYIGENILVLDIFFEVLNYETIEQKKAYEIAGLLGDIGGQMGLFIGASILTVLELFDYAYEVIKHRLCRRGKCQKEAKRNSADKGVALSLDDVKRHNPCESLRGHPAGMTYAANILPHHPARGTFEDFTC
Protocol: (§1) Mouse ASIC1a (mASIC1a) was a kind gift from John A. Wemmie (University of Iowa, IA, USA). For electrophysiological experiments, HEK293T cells were cultured in DMEM supplemented with 10% FBS and 0.2% penicillin/streptomycin and transiently transfected using Lipofectamine 2000 (Invitrogen) with various cDNAs. For TRPV1 channel expression, cells were transfected with hTRPV1, for ASIC1a homomeric channel expression, cells were transfected with mASIC1a. When needed, 0.1–0.2 µg of cDNA encoding tetrameric red fluorescence protein (DsRed) was co-transfected with the cDNA as a marker for successfully transfected cells. For non-transfected cells, cells were transfected with 0.1–0.2 µg of cDNA encoding DsRed alone. The next day, cells were plated onto poly-L-lysine-coated coverslip chips, and fluorescent cells were studied within 1–2 days.
(§2) The whole-cell configuration was used to voltage-clamp at room temperature (22–25°C). Electrodes pulled from glass micropipette capillaries (Sutter Instrument) had resistances of 2–2.5 MΩ, and series resistance errors were compensated >60%. Fast and slow capacitances were compensated before the application of test-pulse. Recordings were performed using aHEKAEPC-10 amplifier with pulse software (HEKA Elektronik). […] TRPV1 and TRPA1 currents were recorded by holding the cell at −80 mV. […] ASIC currents were recorded by holding the cell at −70 mV. […]

[2] = tested on: non-transfected cells; test: Whole-cell patch clamp recording, non-transfected cells (control); assay type: cell-based, human; settings: capsaicin 100 nM, AITC 100 µM, NGCC 10^3 µM
Protocol: as §1, §2

[3] = tested on: mock-transfected HEK293T cells; test: Ca2+ imaging of mock-transfected HEK293T cells (control); assay type: cell-based, human; settings: single concentration
Protocol: Mock-transfected HEK293T cells, hTRPV1-expressing HEK293T cells, non-hTRPA1-expressing Flp-In 293 cells, and hTRPA1-expressing Flp-In 293 cells grown in 96-well black-wall plates were rinsed with assay buffer (130 mM NaCl, 10 mM glucose, 5 mM KCl, 2 […]2, 1.2 mM MgCl2, and 10 mM HEPES, pH 7.4) and loaded with 5 μM Fura-2 AM (Invitrogen) for 30 min at 27°C. The cells were washed with assay buffer and treated with ligands. […] The fluorescence intensities of Fura-2 excited at 340 and 380 nm were simultaneously measured at 510 nm using a computer-controlled filter changer (Lambda DG4; Sutter, San Rafael, CA, USA), an Andor Luca CCD camera (Andor Technology, Belfast, UK), and an inverted fluorescence microscope (IX-71; Olympus, Tokyo, Japan). Intracellular calcium images were recorded every 3-s for 60-s and analyzed using MetaFluor software (Molecular Devices, Sunnyvale, CA, USA).

[4] = target: T2, hTRPA1 (Homo sapiens, UniProt O75762); test: Whole-cell patch clamp recording, cells stably expressing hTRPA1; assay type: cell-based; settings: NGCC 10^3 µM
T2 construct: expressed in transfected cells
Protocol: (§3) Flp-In 293 cell lines stably expressing hTRPA1constructed as previously reported was a gift from the professor Takumi Misaka at University of Tokyo. The hTRPA1-expressing cells were cultured in DMEM containing 10% FBS and 0.02% hygromycin B (Invitrogen). Flp-In 293 cell lines were maintained in DMEM containing 10% FBS. All cells were incubated at 37°C in a humidified atmosphere of 5% CO2.
(§4) The whole-cell configuration was used to voltage-clamp at room temperature (22–25°C). Electrodes pulled from glass micropipette capillaries (Sutter Instrument) had resistances of 2–2.5 MΩ, and series resistance errors were compensated >60%. Fast and slow capacitances were compensated before the application of test-pulse. Recordings were performed using aHEKAEPC-10 amplifier with pulse software (HEKA Elektronik). The pipette solution contained: 140 mM KCl, 5 mM MgCl2, 10 mM HEPES, 0.1 mM 1,2-bis(2-aminophenoxy) ethane N,N,N’,N’-tetraacetic acid(BAPTA), 3 mM Na2ATP, and 0.1 mM Na3GTP, adjusted to pH 7.4 with KOH. The external Ringer’s solution used for recording TRPV1 and TRPA1 currents contained: 150 mM NaCl, 5 mM KCl, 1 mM MgCl2, 2 mM EGTA, 10 mM Glucose, and 10 mM HEPES, adjusted to pH 7.4 with NaOH. TRPV1 and TRPA1 currents were recorded by holding the cell at −80 mV. The external Ringer’s solution used for recording ASIC current contained: 160 mM NaCl, 5 mM KCl, 1 mM MgCl2, 2 mM CaCl2, and 10 mM HEPES, adjusted to pH 7.4 with tetramethylammonium hydroxide. For acidic solution of pH 6.0, HEPES was replaced with MES. ASIC currents were recorded by holding the cell at −70 mV. Reagents were obtained as follows: BAPTA, Na2ATP, Na3GTP, EGTA, and tetramethylammonium hydroxide (Sigma), HEPES (Calbiochem), MES (Alfa Aesar), and other chemicals (Merck).

[5] = target: T3, hTRPV1 (Homo sapiens, UniProt Q8NER1); test: Whole-cell patch clamp recording, hTRPV1-expressing HEK293T cells; assay type: cell-based; settings: capsaicin 100 nM; NGCC 10^3 µM; holding -80 mV
T3 construct: expressed in transfected cells; host or cells: HEK293T
Protocol: as §1, §4

[6] = target: T2, hTRPA1; test: Measurement of Ca2+ influx (Fluo-4 AM, FlexStation III) in hTRPA1-expressing cells; assay type: cell-based; settings: hTRPA1-expressing Flp-In 293 cells, Hill fit
Protocol: as §3
The ligand-induced changes on cytosolic Ca^2+ level were monitored by a FlexStation III microplate reader (Molecular Devices). Fluo-4 AM (5 µM, Molecular Probes, Eugene, OR, USA) in assay buffer was loaded to the cells in 96-well black-wall plates for 30 min at 27°C. After dye treatment, each chemical was added to each well at 17 s and changes on intracellular Ca^2+ level were monitored by relative fluorescence units (ΔRFU, Ex = 485 nm; Em = 516 nm) for 120 s. […] The responses from at least three wells receiving the same stimulus were averaged. Plots of amplitude versus concentration were fitted using the Hill equation.

[7] = tested on: amiloride-insensitive salt taste pathway; set-up: method as in PMID 23221408; settings: WT and TRPV1 KO mice, electrophysiological studies; cited from earlier work

T2 sequence (O75762 whole entry): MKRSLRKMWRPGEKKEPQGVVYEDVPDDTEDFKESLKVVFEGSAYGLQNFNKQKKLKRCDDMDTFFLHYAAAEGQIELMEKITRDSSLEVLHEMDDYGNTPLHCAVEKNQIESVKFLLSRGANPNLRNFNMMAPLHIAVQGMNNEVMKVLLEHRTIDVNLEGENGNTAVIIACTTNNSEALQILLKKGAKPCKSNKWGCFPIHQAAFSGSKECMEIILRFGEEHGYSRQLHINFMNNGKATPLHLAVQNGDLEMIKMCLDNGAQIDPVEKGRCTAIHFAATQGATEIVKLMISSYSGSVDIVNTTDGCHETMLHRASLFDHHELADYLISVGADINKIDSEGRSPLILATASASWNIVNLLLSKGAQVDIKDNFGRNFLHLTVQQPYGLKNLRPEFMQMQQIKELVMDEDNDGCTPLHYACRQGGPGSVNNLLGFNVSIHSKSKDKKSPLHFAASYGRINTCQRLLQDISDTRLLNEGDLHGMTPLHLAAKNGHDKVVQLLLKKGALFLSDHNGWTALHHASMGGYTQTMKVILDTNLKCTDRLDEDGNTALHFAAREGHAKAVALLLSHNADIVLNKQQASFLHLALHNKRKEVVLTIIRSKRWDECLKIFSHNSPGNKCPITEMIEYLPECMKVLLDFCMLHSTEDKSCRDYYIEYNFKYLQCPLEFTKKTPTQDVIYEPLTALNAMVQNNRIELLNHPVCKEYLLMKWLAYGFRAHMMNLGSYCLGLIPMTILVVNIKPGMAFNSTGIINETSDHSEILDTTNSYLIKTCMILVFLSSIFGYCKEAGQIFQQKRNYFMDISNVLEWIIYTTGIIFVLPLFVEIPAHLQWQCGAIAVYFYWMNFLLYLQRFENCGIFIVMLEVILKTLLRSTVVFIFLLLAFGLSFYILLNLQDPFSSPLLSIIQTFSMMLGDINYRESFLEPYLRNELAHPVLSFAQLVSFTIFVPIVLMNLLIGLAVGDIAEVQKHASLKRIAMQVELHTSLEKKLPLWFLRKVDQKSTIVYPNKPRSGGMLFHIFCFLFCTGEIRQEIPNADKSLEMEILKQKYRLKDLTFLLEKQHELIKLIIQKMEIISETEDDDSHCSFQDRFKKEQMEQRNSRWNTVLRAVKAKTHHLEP
T3 sequence (Q8NER1 whole entry): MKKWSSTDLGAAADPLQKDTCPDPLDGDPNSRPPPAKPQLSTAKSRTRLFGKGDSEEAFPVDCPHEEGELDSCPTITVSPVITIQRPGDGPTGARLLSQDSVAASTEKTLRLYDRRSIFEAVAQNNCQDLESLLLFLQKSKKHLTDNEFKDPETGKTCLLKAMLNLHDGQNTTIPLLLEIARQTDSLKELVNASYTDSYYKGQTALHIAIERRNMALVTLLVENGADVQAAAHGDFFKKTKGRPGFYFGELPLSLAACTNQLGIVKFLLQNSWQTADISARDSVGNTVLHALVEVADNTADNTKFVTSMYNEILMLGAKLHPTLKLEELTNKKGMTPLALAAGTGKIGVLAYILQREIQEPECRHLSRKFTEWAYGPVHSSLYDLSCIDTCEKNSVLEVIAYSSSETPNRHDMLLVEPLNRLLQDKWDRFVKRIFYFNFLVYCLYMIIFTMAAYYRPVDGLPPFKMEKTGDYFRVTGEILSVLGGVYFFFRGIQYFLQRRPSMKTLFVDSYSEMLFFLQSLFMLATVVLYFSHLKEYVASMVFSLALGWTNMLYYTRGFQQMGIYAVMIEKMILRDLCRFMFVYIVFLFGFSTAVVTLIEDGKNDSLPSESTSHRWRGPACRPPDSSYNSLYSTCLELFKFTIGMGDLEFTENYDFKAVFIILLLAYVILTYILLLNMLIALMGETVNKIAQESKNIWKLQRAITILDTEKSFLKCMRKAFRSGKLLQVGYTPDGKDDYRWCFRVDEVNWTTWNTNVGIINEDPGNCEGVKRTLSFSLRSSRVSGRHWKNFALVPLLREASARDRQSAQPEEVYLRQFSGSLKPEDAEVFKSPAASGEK

activation of ASIC1a homomeric channels [1]: not sensitive
inward current in hTRPA1-expressing cells ([4]; AITC 100 µM, holding -80 mV): induced an inward current
amplitude of current compared with AITC (100 µM) ([4]; same cell): bigger than that of AITC
inward current in cells expressing hTRPV1 [5]: triggered an inward current
pEC50 [6]: 4.08
Compound: CC(C)=CCC/C(C)=C/CNC(=O)C1CC1 [NGCC, N-geranylcyclopropylcarboxamide]
current in non-transfected cells [2]: no current
change in fluorescence in mock-transfected cells [3]: no changes in fluorescence
effect on the amiloride-insensitive salt taste pathway [7]: produced biphasic effects
